# From patent US9618524B2, “Method, composition, isolation and identification of a plaque particle and related biomarker” (Plaxgen Inc., priority 2012, dated 2017)
# Columns and labels:
# Experiment in all cases: Mass spectroscopy proteomics, semi-quantitative binding affinity of serum proteins (plaqueproteome, Table 2)
# Details in all cases: higher number = stronger affinity
# [1] = target: T1, Abeta-42 plaque particles (Homo sapiens, UniProt P05067)
# T1 construct: Abeta 1-42
# In short: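 AD patient serum or plasma (50% in PBS) was incubated with Abeta-42 aggregates (30 μg) for 1 h at 37 °C, then stained with Thioflavin S for 30 min. Labeled particles were FACS-sorted, trypsin/Lys-C digested overnight and analyzed by MS/MS. Sequest searched human UniProt; Scaffold/Protein Prophet validated the identifications.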
# [2] = system: High Density cholesterol (Chl Large) plaque particles; parameters: species or system human
# In short: (§1)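 Serum or plasma from atherosclerotic subjects, diluted to 50% in PBS, was incubated with cholesterol aggregates (30 μg per 1 mL reaction) at 37° C for 1 hr. Small and large cholesterol plaque particles were sorted by flow cytometry gating, trypsin-digested and analysed by MS/MS against a human UniProt database.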
# [3] = system: Low density cholesterol (Chl small) plaque particles; parameters: species or system human
# In short: as §1
# [4] = target: T2, alpha-synuclein plaque particles (Homo sapiens, UniProt P37840)
# T2 construct: 140 amino acids polypeptide
# In short: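 AD-subject plasma or serum (800 μL of 50%) mixed with 30 μg preformed alpha-synuclein aggregates for 1 h at 37 °C; Thioflavin S-positive particles isolated by flow sorting. After reduction, acrylamide alkylation and overnight tryptic digestion, serum proteins identified by MS/MS with Sequest and Scaffold.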
# Tau plaque particles = system: Tau plaque particles; parameters: species or system human
# In short: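 Synthetic Tau-74 and Tau-275 peptides (1 mg/mL PBS, 37° C, 2 h) aggregated; 30 μg aggregates incubated with 50% serum/plasma 1 h at 37° C, stained with Thioflavin S, and plaque particles sorted by flow cytometry. Bound proteins trypsin-digested and identified by MS/MS against human UniProt.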
Substance,Semi-quantitative analysis of proteins binding to different plaque particles: Abeta-42 [1],Semi-quantitative analysis of proteins binding to different plaque particles: Chl Large [2],Semi-quantitative analysis of proteins binding to different plaque particles: Chl small [3],Semi-quantitative analysis of proteins binding to different plaque particles: Synuclein [4],Semi-quantitative analysis of proteins binding to different plaque particles: Tau (Tau plaque particles)
Ig heavy chain V-III region WA,4,1,2,0,1
Ig kappa chain C region,11,17,21,15,15
Ig kappa chain V-I region AU,2,1,1,0,0
Ig kappa chain V-I region CAR,5,1,1,1,1
Ig kappa chain V-I region DE,5,5,1,3,2
Ig kappa chain V-I region HK102,5,1,1,1,1
Ig kappa chain V-I region Mev,0,1,1,0,0
Ig kappa chain V-I region Ni,5,2,2,2,3
Ig kappa chain V-I region Wes,2,2,1,2,2
Ig kappa chain V-III region IARC/BL41,0,0,1,0,2
Ig kappa chain V-III region NG9,0,2,1,2,3
Ig kappa chain V-III region POM,0,1,1,0,2
